# From ChEMBL document CHEMBL1201862, “PubChem BioAssay data set” (2004)
#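 96-well plates; 48 h exposure; 5 concentrations. Endpoints by linear interpolation between flanking doses. Not reached: highest tested concentration assigned. The concentration for 50% growth inhibition is given as GI50.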 Active and inactive are the calls of the source. Cut-off read from the data, not from the text of the source: active = GI50 up to about 1.1 µM and inactive = higher. Positions of bridges follow the written chain, without caps; N, C: chain ends. Non-standard residues stand in square brackets, D forms with d. Residues, ends and D or L forms follow the SMILES beside them. Aib = CC(C)(N)C(=O)O; βAla = NCCC(=O)O
# Tests used:
# Test in all cases: growth of human tumour cells (NCI), 48 h
# [1] = tested on: MDA-MB-435
# [2] = tested on: BT-549
# [3] = tested on: SK-MEL-5
# [4] = tested on: 786-0
# [5] = tested on: HCT-116
# [6] = tested on: SK-MEL-2
# [7] = tested on: OVCAR-5
# [8] = tested on: U-251
# [9] = tested on: M14
# [10] = tested on: UACC-62
# [11] = tested on: OVCAR-8
# [12] = tested on: DU-145
# [13] = tested on: TK-10
# [14] = tested on: SW-620
# [15] = tested on: HCT-15
# [16] = tested on: T47D
# [17] = tested on: SF-268
# [18] = tested on: MCF7
# [19] = tested on: RXF 393
# [20] = tested on: SNB-19
# [21] = tested on: PC-3
# [22] = tested on: OVCAR-4
# [23] = tested on: CCRF-CEM
# [24] = tested on: IGROV-1
# [25] = tested on: NCI/ADR-RES
# [26] = tested on: HOP-62
# [27] = tested on: RPMI-8226
# [28] = tested on: NCI-H460
# [29] = tested on: NCI-H226
# [30] = tested on: MOLT-4
# [31] = tested on: SK-MEL-28
# [32] = tested on: A498
# [33] = tested on: ACHN
# [34] = tested on: COLO 205
# [35] = tested on: A549
# [36] = tested on: Hs-578T
# [37] = tested on: EKVX
# [38] = tested on: UO-31
# [39] = tested on: SK-OV-3
# [40] = tested on: SNB-75
# [41] = tested on: MDA-N
# [42] = tested on: OVCAR-3
# [43] = tested on: KM12
# [44] = tested on: HOP-92
# [45] = tested on: HT-29
# [46] = tested on: NCI-H23
# [47] = tested on: SF-295
# [48] = tested on: CAKI-1
# [49] = tested on: LOX IMVI
# [50] = tested on: MDA-MB-231
# [51] = tested on: UACC-257
# [52] = tested on: Malme-3M
# [53] = tested on: K562
# [54] = tested on: SF-539
# [55] = tested on: NCI-H522
structure (smiles),measurement,setting,value
CC1(C)NC(=O)C(NC(=O)C(N)CC(=O)O)CCCCNC(=O)CCNC1=O (stereo not given) (H-DK[Aib][βAla]; lactam 2-C; configuration not given here),GI50,[1],> 100 µM (inactive)
same,GI50,[2],> 100 µM (inactive)
same,GI50,[3],> 100 µM (inactive)
same,GI50,[4],> 100 µM (inactive)
same,GI50,[5],> 100 µM (inactive)
same,GI50,[6],> 100 µM (inactive)
same,GI50,[7],> 100 µM (inactive)
same,GI50,[8],> 100 µM (inactive)
same,GI50,[9],> 100 µM (inactive)
same,GI50,[10],> 100 µM (inactive)
same,GI50,[11],> 100 µM (inactive)
same,GI50,[12],> 100 µM (inactive)
same,GI50,[13],> 100 µM (inactive)
same,GI50,[14],> 100 µM (inactive)
same,GI50,[15],> 100 µM
same,GI50,[16],> 100 µM (inactive)
same,GI50,[17],> 100 µM (inactive)
same,GI50,[18],> 100 µM (inactive)
same,GI50,[19],> 100 µM (inactive)
same,GI50,[20],> 100 µM (inactive)
same,GI50,[21],> 100 µM (inactive)
same,GI50,[22],> 100 µM (inactive)
same,GI50,[23],> 100 µM (inactive)
same,GI50,[24],> 100 µM (inactive)
same,GI50,[25],> 100 µM (inactive)
same,GI50,[26],> 100 µM (inactive)
same,GI50,[27],> 100 µM (inactive)
same,GI50,[28],> 100 µM (inactive)
same,GI50,[29],> 100 µM (inactive)
same,GI50,[30],> 100 µM (inactive)
same,GI50,[31],> 100 µM (inactive)
same,GI50,[32],> 100 µM (inactive)
same,GI50,[33],> 100 µM (inactive)
same,GI50,[34],> 100 µM (inactive)
same,GI50,[35],> 100 µM (inactive)
same,GI50,[36],> 100 µM (inactive)
same,GI50,[37],> 100 µM (inactive)
same,GI50,[38],> 100 µM (inactive)
same,GI50,[39],> 100 µM (inactive)
same,GI50,[40],> 100 µM (inactive)
same,GI50,[41],> 100 µM (inactive)
same,GI50,[42],> 100 µM (inactive)
same,GI50,[43],> 100 µM (inactive)
same,GI50,[44],> 100 µM (inactive)
same,GI50,[45],> 100 µM (inactive)
same,GI50,[46],> 100 µM (inactive)
same,GI50,[47],> 100 µM (inactive)
same,GI50,[48],> 100 µM (inactive)
same,GI50,[49],> 100 µM (inactive)
same,GI50,[50],> 100 µM (inactive)
same,GI50,[51],> 100 µM (inactive)
same,GI50,[52],> 100 µM (inactive)
same,GI50,[53],> 100 µM (inactive)
same,GI50,[54],> 100 µM (inactive)
same,GI50,[55],> 100 µM (inactive)
